Values quoted from earlier work in patent US20120277309A1, “METHODS OF CONTROLLING VENOUS IRRITATION ASSOCIATED WITH THE TREATMENT OF A CARDIAC DISORDER” (BAXTER HEALTHCARE S.A., priority 2011, published 2012).
Structures can show the parent of a compound that is named as a salt.

Experiments:
[1] = packaging insert, Baxter; incidence increases with concentration
[2] = tested on: beta-adrenergic; conditions: disclosed in WO 88/01614

SMILES: COC(=O)CCc1ccc(OCC(O)CNC(C)C)cc1 (racemic) [R,S-esmolol hydrochloride, methyl-3-[4-(2-hydroxy-3-isopropylamino)propoxy]phenylpropionate hydrochloride]
- Venous irritation in patients on infusion [1]: A significant number of patients experience venous irritation at the infusion site

SMILES: COC(=O)CCc1ccc(OC[C@@H](O)CNC(C)C)cc1.Cl (single isomer, unassigned) [S-isomer of esmolol hydrochloride]
- Potency as a beta-adrenergic-blocking agent relative to an equivalent amount of the racemic mixture [2]: about twice
